{"source": "patent US20140038889A1", "about": "“Modulators Of The GPR119 Receptor And The Treatment Of Disorders Related Thereto” (ARENA PHARMACEUTICALS, INC., priority 2011, published 2014)", "key": {"Male ZDF rats": {"test_system": "Male ZDF rats", "experiment": "Oral glucose tolerance test (oGTT) in male ZDF rats", "assay_type": "in vivo", "settings": "for % Inhibition of Glucose Excursion: AUC relative to vehicle control, ZDF rats", "description": "Male ZDF rats were fasted for 18 h and randomly grouped (n=6) to receive the GPR119 agonist Compound 1(3 or 10 mg/kg), the control compound, Januvia (3 mg/kg), or a combination of Compound 1(3 mg/kg) and Januvia (3 mg/kg). The compounds were delivered orally via a gavage needle (p.o., volume 4 mL/kg) 60 min prior to glucose bolus (3 g/kg) (time=−60 min in FIG. 4), with a separate group receiving vehicle (20% hydroxypropyl-beta-cyclodextrin (HPCD)) as control. At time 0 min, a glucose bolus was administered. Levels of blood glucose were assessed using a glucometer (One-Touch Ultra™, LifeScan) at time −60 min (prior to compound administration), at 0 min (at time when glucose bolus was given), and at 30, 60, 90, and 120 min post glucose bolus. The plasma glucose excursion curve (FIG. 4) is shown."}, "humans": {"test_system": "humans", "settings": "human studies, infusion, over 24 hours; cited from earlier work"}, "Solubility of Compound 1": {"experiment": "Solubility of Compound 1", "assay_type": "physicochemical", "description": "To a solution of 5-fluoro-4-(2-methyl-6-(methylsulfonyl)pyridin-3-yloxy)-6-(piperidin-4-yloxy)pyrimidine hydrochloride (200 mg, 0.477 mmol) and 2,5-dioxopyrrolidin-1-yl 1-methylcyclopropyl carbonate (247 mg, 1.16 mmol) in DCM (3.5 mL) was added triethylamine (0.333 mL, 2.387 mmol). The reaction mixture was stirred at room temperature for 2 h. The mixture was concentrated under reduced pressure and the residue was purified by silica gel flash column chromatography to give the title compound as a white solid (183 mg, 80% yield). Exact mass calculated for C21H25FN4O6S: 480.15. found: LCMS m/z=481.2 [M+H]^+; ^1H NMR (400 MHz, CDCl3) δ ppm 0.63-0.66 (m, 2H), 0.87-0.90 (m, 2H), 1.56 (s, 3H), 1.82-1.84 (m, 2H), 2.02-2.04 (m, 2H), 2.55 (s, 3H), 3.35 (s, 3H), 3.28-3.37 (m, 2H), 3.78-3.79 (m, 2H), 5.36-5.40 (m, 1H), 7.68 (d, J=12 Hz, 1H), 8.01 (d, J=8 Hz, 1H), 8.07 (s, 1H). Solubility: <0.001 mg/mL (H2O); 2.758 mg/mL (20% HPCD)."}, "Male 129SVE mice [1]": {"test_system": "Male 129SVE mice", "experiment": "Oral glucose tolerance test (oGTT) in male 129SVE mice", "assay_type": "in vivo", "settings": "for Plasma Glucose, Mean: n=6", "description": "Male 129SVE mice (approximately 8 weeks old) were fasted for 18 h and randomly grouped (n=6) to receive a GPR119 agonist (Compound 1) at 3, or 10 mg/kg body weight. Compound 1 was delivered orally via a gavage needle (p.o., volume at 4 mL/kg) 30 minutes prior to glucose bolus (3 g/kg) (time=−30 min in FIG. 1), with a separate group receiving vehicle (20% hydroxypropyl-beta-cyclodextrin (HPCD) as a control. At time 0 min the glucose bolus was administered. Levels of blood glucose were assessed using a glucometer (One-Touch Ultra™, LifeScan) at time −30 min (prior to compound administration), at 0 min (when the glucose bolus was given), and at 20, 40, 60, 120 min post glucose bolus. The plasma glucose level (Table A) and glucose excursion curve (FIG. 1) are shown. Glucose excursion reduction (area under the curve (AUC)) in compound-treated animals relative to vehicle control is shown in FIG. 2."}, "Male 129SVE mice [2]": {"test_system": "Male 129SVE mice", "experiment": "GIP release in male 129SVE mice (plasma total GIP, ELISA)", "assay_type": "in vivo", "settings": "3 or 30 mg/kg p.o., 45 min", "description": "Male 129SVE mice (approximately 8 weeks old) were fasted for 18 h and randomly grouped (n=6) to receive a GPR119 agonist (Compound 1) at 3 or 30 mg/kg body weight. Compound 1 was delivered orally via a gavage needle (4 mL/kg), and after 45 min, a blood sample was collected to determine plasma total GIP levels. A separate control group received vehicle (PET (80% PEG:10% Ethanol:10% Tween80™)). Plasma GIP levels were determined using a GIP (total) ELISA kit from Millipore."}, "GPR119 receptor": {"target": "T1, GPR119 receptor (Homo sapiens, UniProt Q8TDV5)", "T1 construct": "expressed in transfected cells", "T1 sequence (Q8TDV5 2-335)": "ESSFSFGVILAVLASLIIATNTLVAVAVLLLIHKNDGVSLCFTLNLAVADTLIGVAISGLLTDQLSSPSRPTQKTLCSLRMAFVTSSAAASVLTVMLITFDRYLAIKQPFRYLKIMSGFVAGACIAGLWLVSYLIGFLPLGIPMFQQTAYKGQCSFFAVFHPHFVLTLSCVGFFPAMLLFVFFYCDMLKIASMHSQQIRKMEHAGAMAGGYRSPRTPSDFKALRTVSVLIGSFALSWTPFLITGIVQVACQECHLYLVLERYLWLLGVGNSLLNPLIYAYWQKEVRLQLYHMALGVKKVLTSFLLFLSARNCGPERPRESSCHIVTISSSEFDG", "experiment": "HTRF cAMP detection assay in CHO-K1 cells stably expressing the GPR119 receptor", "assay_type": "cell-based", "description": "GPR119 agonist, Compound 1, was evaluated in an HTRF® cAMP detection assay (Cisbio, cAMP Dynamic 2 Assay Kit; #62AM4PEJ) according to the manufacturer's instructions using CHO-K1 cells stably expressing the GPR119 receptor. CHO-K1 cells were transduced with a lentiviral vector encoding the nucleotide sequence of GPR119 (NCBI mRNA and protein reference sequences: NM_178471.2 & NP_848566). The N-terminus of the GPR119 nucleotide sequence was modified to replace the first, methionine-coding, codon with a nucleotide sequence coding for a standard, nine amino acid, hemagglutinin tag. Following transduction, cells expressing the GPR119 receptor were isolated and a single clone was isolated following standard dilution-cloning procedures. On the day of the assay, cultured CHO-GPR119 cells were harvested, suspended in assay buffer and plated into 384-well assay plates (PerkinElmer® Proxiplate® #6008280) at a density of 2,000 cells per well. A cAMP standard curve was added to each plate. Compound 1 was dissolved in DMSO, serially diluted in DMSO and then diluted in assay buffer before addition to the cells. Compound 1 was evaluated in triplicate, using 10-point, 5-fold serial dilutions starting at 10 μM. […] Plates were then incubated at room temperature for 1 h prior to reading. Time-resolved fluorescence measurements were collected on PerkinElmer Envision™ or BMG Pherastar™ microplate readers. […]"}, "Male SD rats": {"test_system": "Male SD rats", "experiment": "Gastric emptying in male SD rats (stomach content 6 h post-dosing)", "assay_type": "in vivo", "settings": "SD rats, 3, 10 or 30 mg/kg orally", "description": "Male SD rats were fasted for 18 h and randomly grouped (n=5). Fasted rats were allowed to access food for 30 min, and the amount of food consumed was recorded for each rat. At the end of the 30 min food intake, rats were put in cages without food and water, and dosed with Compound 1 at 3, 10, or 30 mg/kg, or vehicle control (20% HPCD) orally, or with exendin-4 (Ex-4) at 100 μg/kg i.p. Six hours post-dosing, rats were euthanized with CO2, and stomach content was determined."}, "[3]": {"settings": "3 mg/kg p.o. 60 min prior to glucose bolus (3 g/kg)"}}, "note": "pEC50: −log10 of the molar value. Entries after “also recorded” stand apart in the source; their conditions may differ. Where a name gives a salt, the structure may show the parent alone."}
{"molecule": "N[C@@H](CC(=O)N1CCn2c(nnc2C(F)(F)F)C1)Cc1cc(F)c(F)cc1F", "note": "[Januvia, dihydrogenphosphate salt of 3(R)-amino-1-[3-(trifluoromethyl)-5,6,7,8-tetrahydro[1,2,4]triazolo[4,3-a]pyrazin-7-yl]-4-(2,4,5-trifluorophenyl)butan-1-one, reference compound]", "values": [{"measurement": "% Inhibition of Glucose Excursion", "setting": "Male ZDF rats; [3]", "value": 57.0, "unit": "%"}]}
{"molecule": "PYY3-36: form of Peptide YY generated from PYY1-36 by cleavage of the N-terminal Tyr and Pro residues by DPP-IV", "values": [{"measurement": "Reduction of food intake", "setting": "humans", "value": 33, "unit": "%"}]}
{"molecule": "Cc1nc(S(C)(=O)=O)ccc1Oc1ncnc(OC2CCN(C(=O)OC3(C)CC3)CC2)c1F", "note": "[Compound 1, 1-methylcyclopropyl 4-(5-fluoro-6-(2-methyl-6-(methylsulfonyl)pyridin-3-yloxy)pyrimidin-4-yloxy)piperidine-1-carboxylate]", "values": [{"measurement": "solubility", "setting": "Solubility of Compound 1; 20% HPCD, aqueous with cosolvent or surfactant or cyclodextrin", "value": 2760, "unit": "µg/mL"}, {"measurement": "solubility", "setting": "Solubility of Compound 1; water, H2O", "value": "< 1", "unit": "µg/mL"}, {"measurement": "Plasma Glucose, Mean", "setting": "Male 129SVE mice [1]; 3 mg/kg p.o., 0 min relative to glucose bolus", "value": 92.0, "unit": "mg/dL"}, {"measurement": "Plasma Glucose, Mean", "setting": "Male 129SVE mice [1]; 3 mg/kg p.o., 20 min post glucose bolus (3 g/kg)", "value": 207.0, "unit": "mg/dL"}, {"measurement": "Plasma Glucose, Mean", "setting": "Male 129SVE mice [1]; 3 mg/kg p.o., 40 min post glucose bolus (3 g/kg)", "value": 280.6667, "unit": "mg/dL"}, {"measurement": "Plasma Glucose, Mean", "setting": "Male 129SVE mice [1]; 3 mg/kg p.o., 60 min post glucose bolus (3 g/kg)", "value": 248.8333, "unit": "mg/dL"}, {"measurement": "Plasma Glucose, Mean", "setting": "Male 129SVE mice [1]; 3 mg/kg p.o., 120 min post glucose bolus (3 g/kg)", "value": 161.8333, "unit": "mg/dL"}, {"measurement": "Plasma Glucose, Mean", "setting": "Male 129SVE mice [1]; 3 mg/kg p.o., -30 min relative to glucose bolus (prior to compound administration)", "value": 75.17, "unit": "mg/dL"}, {"measurement": "Plasma Glucose, Mean", "setting": "Male 129SVE mice [1]; 10 mg/kg p.o., 0 min relative to glucose bolus", "value": 94.5, "unit": "mg/dL"}, {"measurement": "Plasma Glucose, Mean", "setting": "Male 129SVE mice [1]; 10 mg/kg p.o., 20 min post glucose bolus (3 g/kg)", "value": 190.3333, "unit": "mg/dL"}, {"measurement": "Plasma Glucose, Mean", "setting": "Male 129SVE mice [1]; 10 mg/kg p.o., 40 min post glucose bolus (3 g/kg)", "value": 229.6667, "unit": "mg/dL"}, {"measurement": "Plasma Glucose, Mean", "setting": "Male 129SVE mice [1]; 10 mg/kg p.o., 60 min post glucose bolus (3 g/kg)", "value": 199.6667, "unit": "mg/dL"}, {"measurement": "Plasma Glucose, Mean", "setting": "Male 129SVE mice [1]; 10 mg/kg p.o., 120 min post glucose bolus (3 g/kg)", "value": 150.6667, "unit": "mg/dL"}, {"measurement": "Plasma Glucose, Mean", "setting": "Male 129SVE mice [1]; 10 mg/kg p.o., -30 min relative to glucose bolus (prior to compound administration)", "value": 71.5, "unit": "mg/dL"}, {"measurement": "Effect on blood glucose after challenge with glucose (in words)", "setting": "Male 129SVE mice [1]; male 129SVE mice, 3 or 10 mg/kg p.o.", "value": "lowered blood glucose"}, {"measurement": "Effect on plasma glucose levels in oGTT (in words)", "setting": "Male 129SVE mice [1]; male 129SVE mice, dose of 10 mg/kg", "value": "significantly reduced plasma glucose levels"}, {"measurement": "Release of GIP (plasma total GIP, in words)", "setting": "Male 129SVE mice [2]", "value": "stimulates the release of GIP"}, {"measurement": "Agonist activity at GPR119 (in words)", "setting": "GPR119 receptor", "value": "potent and selective agonist; also recorded: full agonist"}, {"measurement": "pEC50", "setting": "GPR119 receptor; CHO-K1 cells stably expressing GPR119, 1 h incubation", "value": 7.83}, {"measurement": "% Inhibition of Glucose Excursion", "setting": "Male ZDF rats; [3]", "value": 14.8, "unit": "%"}, {"measurement": "% Inhibition of Glucose Excursion", "setting": "Male ZDF rats; 10 mg/kg p.o. 60 min prior to glucose bolus (3 g/kg)", "value": 26.2, "unit": "%"}, {"measurement": "Effect on blood glucose after a challenge with glucose (in words)", "setting": "Male ZDF rats; diabetic ZDF rats, 3 or 10 mg/kg p.o.", "value": "lowered blood glucose"}, {"measurement": "Effect on gastric emptying (in words)", "setting": "Male SD rats", "value": "had an effect on gastric emptying at high dosage (30 mg/kg), but that effect was less pronounced than the positive control, Ex-4"}]}
